What was measured:
[1] = biological target: 5-hydroxytryptamine receptor 1B (Rattus norvegicus) (UniProt P28564); assay: Displacement of [125I]-CYP from 5-HT1BR in rat cerebral cortex at 10^-6 M after 120 mins by scintillation counting analysis relative to control
[2] = biological target: 5-hydroxytryptamine receptor 2C (Homo sapiens) (UniProt P28335); assay: Antagonist activity at human 5-HT2CR expressed in HEK293 cells assessed as inhibition of serotonin-induced IP1 accumulation after 30 mins by HTRF method; type: functional, cell-based
Sequence of 5-hydroxytryptamine receptor 2C (Homo sapiens) (P28335 whole entry): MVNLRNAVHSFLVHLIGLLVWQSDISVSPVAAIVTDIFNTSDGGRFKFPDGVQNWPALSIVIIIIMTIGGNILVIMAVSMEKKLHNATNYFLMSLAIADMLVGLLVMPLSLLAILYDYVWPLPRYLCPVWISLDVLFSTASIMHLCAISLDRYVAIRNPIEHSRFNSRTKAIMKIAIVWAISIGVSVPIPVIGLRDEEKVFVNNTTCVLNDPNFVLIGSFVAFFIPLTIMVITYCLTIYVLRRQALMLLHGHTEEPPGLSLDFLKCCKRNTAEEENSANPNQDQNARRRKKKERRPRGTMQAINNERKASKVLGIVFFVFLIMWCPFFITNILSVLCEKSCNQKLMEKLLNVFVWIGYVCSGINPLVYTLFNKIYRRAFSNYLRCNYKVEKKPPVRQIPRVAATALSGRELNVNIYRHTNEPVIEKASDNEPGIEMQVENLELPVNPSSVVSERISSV

[3] = biological target: D(1A) dopamine receptor (Homo sapiens) (UniProt P21728); assay: Displacement of [3H]-SCH 23390 from human dopamine D1 receptor expressed in CHO cells at 10^-6 M after 60 mins by scintillation counting method relative to control; type: cell-based
[4] = biological target: T1, 5-hydroxytryptamine receptor 1A (Homo sapiens) (UniProt P08908); assay: Antagonist activity at human 5-HT1AR expressed in CHO-K1 cells assessed as inhibition of serotonin-induced cAMP accumulation at 10^-6 M by chemiluminescence-based assay; type: functional, cell-based
T1 sequence (whole entry): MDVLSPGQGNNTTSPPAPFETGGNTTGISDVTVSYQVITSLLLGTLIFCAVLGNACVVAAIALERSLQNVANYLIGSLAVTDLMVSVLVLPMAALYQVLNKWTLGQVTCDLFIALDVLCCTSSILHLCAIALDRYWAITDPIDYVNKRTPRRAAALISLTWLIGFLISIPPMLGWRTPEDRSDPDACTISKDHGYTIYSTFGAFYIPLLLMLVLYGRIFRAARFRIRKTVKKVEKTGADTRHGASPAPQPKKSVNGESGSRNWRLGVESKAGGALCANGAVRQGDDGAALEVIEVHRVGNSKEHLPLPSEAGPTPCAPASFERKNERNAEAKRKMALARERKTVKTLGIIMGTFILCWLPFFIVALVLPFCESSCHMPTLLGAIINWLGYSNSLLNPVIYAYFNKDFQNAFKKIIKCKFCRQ

[5] = biological target: Sodium-dependent noradrenaline transporter (Homo sapiens) (UniProt P23975); assay: Displacement of [3H]-nisoxetine from human NET expressed in CHO cells at 10^-6 M after 120 mins by scintillation counting method relative to control; type: cell-based
[6] = biological target: Sodium-dependent serotonin transporter (Homo sapiens, UniProt P31645); assay: Displacement of [3H]imipramine from recombinant human SERT expressed in CHO cells after 60 mins by scintillation counting method; type: cell-based
Sequence of Sodium-dependent serotonin transporter (P31645 whole entry): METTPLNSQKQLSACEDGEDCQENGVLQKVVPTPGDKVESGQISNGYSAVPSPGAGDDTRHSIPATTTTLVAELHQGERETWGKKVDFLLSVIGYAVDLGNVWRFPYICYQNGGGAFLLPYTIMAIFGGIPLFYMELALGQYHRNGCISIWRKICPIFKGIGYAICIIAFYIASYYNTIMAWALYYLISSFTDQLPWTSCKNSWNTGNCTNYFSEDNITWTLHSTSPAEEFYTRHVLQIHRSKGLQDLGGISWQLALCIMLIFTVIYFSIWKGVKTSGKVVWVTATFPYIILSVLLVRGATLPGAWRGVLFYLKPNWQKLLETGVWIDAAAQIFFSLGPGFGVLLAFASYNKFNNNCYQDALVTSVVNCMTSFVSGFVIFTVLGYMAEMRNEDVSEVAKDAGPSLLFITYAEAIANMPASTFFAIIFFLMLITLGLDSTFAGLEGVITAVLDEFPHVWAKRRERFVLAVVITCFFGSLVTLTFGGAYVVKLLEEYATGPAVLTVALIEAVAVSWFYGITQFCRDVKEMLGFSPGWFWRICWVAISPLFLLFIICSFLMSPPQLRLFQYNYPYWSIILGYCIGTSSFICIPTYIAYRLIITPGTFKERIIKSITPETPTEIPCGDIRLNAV

[7] = Tmax in Wistar rat plasma at 9 mg/kg per os administered as a single dose by LC-MS/MS analysis; type: ADME, organism-based; details: po
[8] = biological target: D(3) dopamine receptor (Homo sapiens) (UniProt P35462); assay: Antagonist activity at human D3R expressed in CHO-K1 cells assessed as inhibition of […] cAMP accumulation by chemiluminescence-based assay; type: functional, cell-based
Sequence of D(3) dopamine receptor (Homo sapiens) (P35462 whole entry): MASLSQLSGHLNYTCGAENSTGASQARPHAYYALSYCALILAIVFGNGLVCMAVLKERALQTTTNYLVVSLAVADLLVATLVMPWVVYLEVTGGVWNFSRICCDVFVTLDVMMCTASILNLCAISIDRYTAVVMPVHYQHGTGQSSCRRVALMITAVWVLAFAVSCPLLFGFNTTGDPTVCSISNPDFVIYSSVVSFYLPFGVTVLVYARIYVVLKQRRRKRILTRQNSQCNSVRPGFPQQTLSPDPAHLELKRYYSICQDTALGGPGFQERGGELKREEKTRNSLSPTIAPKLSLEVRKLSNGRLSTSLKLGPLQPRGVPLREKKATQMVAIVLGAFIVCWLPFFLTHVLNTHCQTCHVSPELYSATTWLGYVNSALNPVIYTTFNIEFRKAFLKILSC

[9] = biological target: T2, Alpha-1A adrenergic receptor (Homo sapiens) (UniProt P35348); assay: Antagonist activity at human adrenergic alpha1A receptor expressed in CHO cells assessed as inhibition of epinephrine-induced calcium flux by fluorimetric method; type: functional, cell-based
T2 sequence (whole entry): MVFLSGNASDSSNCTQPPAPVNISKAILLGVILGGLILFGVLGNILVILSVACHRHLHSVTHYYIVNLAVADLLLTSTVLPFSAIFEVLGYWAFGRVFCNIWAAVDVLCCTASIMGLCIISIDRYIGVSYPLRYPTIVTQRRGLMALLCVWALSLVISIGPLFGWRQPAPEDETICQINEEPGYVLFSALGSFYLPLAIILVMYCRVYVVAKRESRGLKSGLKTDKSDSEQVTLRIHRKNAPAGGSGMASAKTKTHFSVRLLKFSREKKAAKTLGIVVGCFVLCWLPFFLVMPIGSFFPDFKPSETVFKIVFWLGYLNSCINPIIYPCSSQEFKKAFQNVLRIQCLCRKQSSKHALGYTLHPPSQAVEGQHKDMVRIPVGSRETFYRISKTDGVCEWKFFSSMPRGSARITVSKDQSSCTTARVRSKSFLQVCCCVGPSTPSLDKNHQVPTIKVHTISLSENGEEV

[10] = biological target: T3, 5-hydroxytryptamine receptor 6 (Homo sapiens, UniProt P50406); assay: Antagonist activity at human 5-HT6R expressed in CHO-K1 cells assessed as inhibition of serotonin-induced cAMP accumulation at 10^-6 M by chemiluminescence-based assay; type: functional, cell-based
T3 sequence (P50406 whole entry): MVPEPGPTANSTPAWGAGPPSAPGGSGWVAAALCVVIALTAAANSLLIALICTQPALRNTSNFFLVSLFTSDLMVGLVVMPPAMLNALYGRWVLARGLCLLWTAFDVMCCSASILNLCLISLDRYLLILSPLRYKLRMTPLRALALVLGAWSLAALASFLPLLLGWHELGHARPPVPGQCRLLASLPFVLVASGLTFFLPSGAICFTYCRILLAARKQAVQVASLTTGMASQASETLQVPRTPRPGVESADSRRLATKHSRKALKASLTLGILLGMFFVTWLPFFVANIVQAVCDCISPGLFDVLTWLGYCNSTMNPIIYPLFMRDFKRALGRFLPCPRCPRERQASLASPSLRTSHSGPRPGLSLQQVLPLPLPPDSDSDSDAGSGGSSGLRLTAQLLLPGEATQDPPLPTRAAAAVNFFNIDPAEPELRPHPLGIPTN

[11] = biological target: Alpha-2C adrenergic receptor (Homo sapiens) (UniProt P18825); assay: Displacement of [3H]-RX 821002 from human adrenergic alpha2C receptor expressed in CHO cells at 10^-6 M after 60 mins by scintillation counting method relative to control; type: cell-based
Sequence of Alpha-2C adrenergic receptor (Homo sapiens) (P18825 whole entry): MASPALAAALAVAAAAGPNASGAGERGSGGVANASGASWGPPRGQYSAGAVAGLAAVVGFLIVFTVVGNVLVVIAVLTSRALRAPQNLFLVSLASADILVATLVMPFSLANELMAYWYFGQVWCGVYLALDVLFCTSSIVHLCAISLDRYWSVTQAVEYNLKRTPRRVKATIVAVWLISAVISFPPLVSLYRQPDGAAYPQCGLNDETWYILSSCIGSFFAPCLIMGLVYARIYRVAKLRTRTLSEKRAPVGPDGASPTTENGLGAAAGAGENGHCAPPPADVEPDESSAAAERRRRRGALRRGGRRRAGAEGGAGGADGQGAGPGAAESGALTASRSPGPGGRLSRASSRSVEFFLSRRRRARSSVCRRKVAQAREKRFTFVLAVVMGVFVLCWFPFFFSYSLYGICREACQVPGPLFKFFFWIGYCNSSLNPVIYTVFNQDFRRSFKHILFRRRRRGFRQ

Rattus norvegicus = assay: Reversal of ketamine-induced cognitive flexibility in ip dosed Sprague-Dawley rat administered 30 mins prior to ketamine administration by attentional set-shifting test; type: functional; details: read-out: MED
[12] = biological target: T1, 5-hydroxytryptamine receptor 1A (Homo sapiens); assay: Antagonist activity at human 5-HT1AR expressed in CHO-K1 cells assessed as inhibition of serotonin-induced cAMP accumulation by chemiluminescence-based assay; type: functional, cell-based
[13] = biological target: 5-hydroxytryptamine receptor 1D (Rattus norvegicus) (UniProt P28565); assay: Displacement of [3H]-serotonin from rat 5-HT1DR expressed in CHO cells at 10^-6 M after 60 mins by scintillation counting analysis relative to control; type: cell-based
Sequence of 5-hydroxytryptamine receptor 1D (Rattus norvegicus) (P28565 whole entry): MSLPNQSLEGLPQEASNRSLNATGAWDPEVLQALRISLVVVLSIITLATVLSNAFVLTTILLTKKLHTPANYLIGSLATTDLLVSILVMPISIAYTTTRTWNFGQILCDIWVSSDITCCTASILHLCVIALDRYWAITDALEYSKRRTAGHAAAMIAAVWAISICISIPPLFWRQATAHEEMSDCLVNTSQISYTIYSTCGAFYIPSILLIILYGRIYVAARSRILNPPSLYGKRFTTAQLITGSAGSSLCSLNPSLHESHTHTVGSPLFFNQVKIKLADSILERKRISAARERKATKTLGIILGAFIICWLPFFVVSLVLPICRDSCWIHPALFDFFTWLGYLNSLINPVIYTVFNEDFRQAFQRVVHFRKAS

[14] = biological target: Beta-2 adrenergic receptor (Homo sapiens) (UniProt P07550); assay: Displacement of CGP 12177 from human adrenergic beta2 receptor expressed in CHO cells at 10^-6 M after 60 mins by scintillation counting method relative to contro; type: cell-based
Sequence of Beta-2 adrenergic receptor (Homo sapiens) (P07550 whole entry, looked up): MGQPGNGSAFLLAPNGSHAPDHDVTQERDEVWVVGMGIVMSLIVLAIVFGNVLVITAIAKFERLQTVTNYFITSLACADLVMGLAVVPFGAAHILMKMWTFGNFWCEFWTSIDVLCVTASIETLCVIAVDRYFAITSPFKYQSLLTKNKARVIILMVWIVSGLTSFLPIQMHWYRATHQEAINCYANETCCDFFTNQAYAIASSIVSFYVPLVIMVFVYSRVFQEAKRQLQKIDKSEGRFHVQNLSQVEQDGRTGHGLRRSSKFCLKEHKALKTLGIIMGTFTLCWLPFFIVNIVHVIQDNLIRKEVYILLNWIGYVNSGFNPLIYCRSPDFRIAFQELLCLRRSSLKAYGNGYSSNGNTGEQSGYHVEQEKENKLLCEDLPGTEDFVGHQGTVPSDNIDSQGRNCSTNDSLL

[15] = biological target: T4, 5-hydroxytryptamine receptor 7 (Homo sapiens, UniProt P34969); assay: Displacement of [3H]LSD from human recombinant 5-HT7 receptor at 10^-6 M after 120 mins by scintillation counting analysis relative to control
T4 sequence (P34969 whole entry): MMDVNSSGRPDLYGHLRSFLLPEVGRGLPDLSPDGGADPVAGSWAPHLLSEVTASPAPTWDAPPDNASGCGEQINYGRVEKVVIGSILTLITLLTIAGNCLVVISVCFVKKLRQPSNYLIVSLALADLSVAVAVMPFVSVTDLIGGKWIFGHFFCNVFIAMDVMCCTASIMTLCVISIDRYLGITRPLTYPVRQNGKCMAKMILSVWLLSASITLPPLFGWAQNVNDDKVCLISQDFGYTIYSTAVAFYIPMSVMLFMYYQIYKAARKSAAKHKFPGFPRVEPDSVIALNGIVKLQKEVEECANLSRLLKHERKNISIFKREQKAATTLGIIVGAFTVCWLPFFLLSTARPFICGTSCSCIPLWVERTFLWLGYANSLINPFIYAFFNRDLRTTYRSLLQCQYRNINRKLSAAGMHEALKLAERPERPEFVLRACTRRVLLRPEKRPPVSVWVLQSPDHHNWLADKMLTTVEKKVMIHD

[16] = biological target: D(2) dopamine receptor (Homo sapiens) (UniProt P14416); assay: Antagonist activity at human D2LR expressed in CHO-K1 cells assessed as inhibition of dopamine-induced calcium flux by fluorimetric method; type: functional, cell-based
Sequence of D(2) dopamine receptor (Homo sapiens) (P14416 whole entry): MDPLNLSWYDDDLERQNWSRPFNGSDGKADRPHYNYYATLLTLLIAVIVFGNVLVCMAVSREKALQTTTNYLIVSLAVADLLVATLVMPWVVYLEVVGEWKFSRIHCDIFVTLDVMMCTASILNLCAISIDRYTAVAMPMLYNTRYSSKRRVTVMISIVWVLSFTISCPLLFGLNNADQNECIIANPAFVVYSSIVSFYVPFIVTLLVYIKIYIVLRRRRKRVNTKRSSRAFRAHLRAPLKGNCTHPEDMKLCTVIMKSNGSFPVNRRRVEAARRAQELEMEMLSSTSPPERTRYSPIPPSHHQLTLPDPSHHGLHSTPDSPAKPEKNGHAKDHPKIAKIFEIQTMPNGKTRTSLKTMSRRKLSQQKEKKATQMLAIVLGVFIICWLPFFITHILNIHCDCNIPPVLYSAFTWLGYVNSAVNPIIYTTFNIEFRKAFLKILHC

[17] = biological target: T4, 5-hydroxytryptamine receptor 7; assay: Antagonist activity at human 5-HT7R expressed in CHO-K1 cells assessed as inhibition of serotonin-induced cAMP accumulation after 30 mins by chemiluminescence-based assay; type: functional, cell-based
[18] = biological target: D(2) dopamine receptor (Homo sapiens) (UniProt P14416); assay: Antagonist activity at human D2LR expressed in CHO-K1 cells assessed as inhibition of dopamine-induced calcium flux at 10^-6 M by fluorimetric method; type: functional, cell-based
[19] = biological target: D(3) dopamine receptor (Homo sapiens) (UniProt P35462); assay: Antagonist activity at human D3R expressed in CHO-K1 cells assessed as inhibition of dopamine induced cAMP accumulation at 10^-6 M after 30 mins by HTRF method; type: functional, cell-based
[20] = biological target: T3, 5-hydroxytryptamine receptor 6; assay: Antagonist activity at human 5-HT6R expressed in CHO-K1 cells assessed as inhibition of serotonin-induced cAMP accumulation after 30 mins by chemiluminescence-based assay; type: functional, cell-based
[21] = biological target: 5-hydroxytryptamine receptor 2A (Homo sapiens, UniProt P28223); assay: Antagonist activity at human 5-HT2AR expressed in HEK293 cells assessed as inhibition of serotonin-induced calcium flux at 10^-6 M after 30 mins by HTRF method; type: functional, cell-based
Sequence of 5-hydroxytryptamine receptor 2A (P28223 whole entry): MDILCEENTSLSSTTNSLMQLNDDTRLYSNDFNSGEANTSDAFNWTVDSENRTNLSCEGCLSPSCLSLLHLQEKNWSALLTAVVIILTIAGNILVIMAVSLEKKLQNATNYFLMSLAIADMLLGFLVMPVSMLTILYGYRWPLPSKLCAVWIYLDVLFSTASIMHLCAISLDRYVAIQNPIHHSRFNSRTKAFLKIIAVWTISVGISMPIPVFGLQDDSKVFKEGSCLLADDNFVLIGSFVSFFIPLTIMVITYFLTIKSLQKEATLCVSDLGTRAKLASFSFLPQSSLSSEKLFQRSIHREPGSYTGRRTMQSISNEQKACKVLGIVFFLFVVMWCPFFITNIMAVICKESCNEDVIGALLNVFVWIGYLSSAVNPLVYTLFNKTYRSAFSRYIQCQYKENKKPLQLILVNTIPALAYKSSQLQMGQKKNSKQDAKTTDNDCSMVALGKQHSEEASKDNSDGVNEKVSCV

[22] = Toxicity in ip dosed Sprague-Dawley rat assessed as induction of catalepsy measured every 30 mins up to 240 mins by bar test; type: organism-based; details: Sprague-Dawley, in vivo

Sequence of 5-hydroxytryptamine receptor 1B (Rattus norvegicus) (P28564 whole entry): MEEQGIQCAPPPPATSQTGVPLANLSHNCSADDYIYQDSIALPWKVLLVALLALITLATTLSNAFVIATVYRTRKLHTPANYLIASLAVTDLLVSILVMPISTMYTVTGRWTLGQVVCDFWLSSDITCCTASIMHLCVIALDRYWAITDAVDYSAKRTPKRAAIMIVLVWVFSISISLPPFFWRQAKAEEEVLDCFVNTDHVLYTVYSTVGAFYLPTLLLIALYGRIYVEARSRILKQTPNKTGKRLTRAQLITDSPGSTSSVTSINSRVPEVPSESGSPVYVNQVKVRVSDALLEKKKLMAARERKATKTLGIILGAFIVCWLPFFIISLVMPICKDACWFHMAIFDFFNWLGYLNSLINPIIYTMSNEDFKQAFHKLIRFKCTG

## O=S(=O)(c1cncc2ccccc12)N1CCC[C@H]1CCN1CCN(c2cccc3sccc23)CC1
[1]
  inhibition: 84%
[2]
  Kb: 24 nM
[3]
  inhibition: 10%
[4]
  inhibition: 32.5%
[5]
  inhibition: 11%
[6]
  Ki: 76 nM
[7]
  Tmax: 10 min
[8]
  Kb: 92 nM
[9]
  Kb: 13 nM
[10]
  inhibition: 23%
[11]
  inhibition: 99%
Rattus norvegicus
  minimal effective dose: 1 mg/kg
[12]
  Kb: 35.6 nM
[13]
  inhibition: 95%
[14]
  inhibition: 25%
[15]
  inhibition: 100%

## O=S(=O)(c1cncc2ccccc12)N1CCC[C@H]1CCN1CCN(c2nsc3ccccc23)CC1
[16]
  Kb: 0.42 nM
[17]
  Kb: 2.5 nM
[18]
  inhibition: 100%
[19]
  inhibition: 100%
[20]
  Kb: 974 nM
[21]
  inhibition: 100%
[22]
  MTD: 30 mg/kg
